Laboratory results: patent publication US6787535B2, “Indole derivatives with 5HT6 receptor affinity” (Syntex (U.S.A.) LLC, priority 2001, dated 2004)
Counter-ions that a name gives are not always drawn.

SMILES | melting point
Cn1cc(S(=O)(=O)c2ccccc2C(F)(F)F)c2cccc(N3CCNCC3)c21 [compound 404, 1-methyl-7-piperazin-1-yl-3-(2-trifluoromethyl-benzenesulfonyl)-1H-indole] | 295 °C
O=S(=O)(c1cccc(Cl)c1)c1c[nH]c2ccc(N3CCNCC3)cc12 [compound 110, 3-(3-chloro-benzenesulfonyl)-5-piperazin-1-yl-1H-indole] | 192 to 197 °C
CN1CCN(c2cccc3c(S(=O)(=O)c4ccccc4Cl)c[nH]c23)CC1 [compound 504, 3-(2-chloro-benzenesulfonyl)-7-(4-methyl-piperazin-1-yl)-1H-indole] | 168.5 to 175.9 °C
CN1CCN(c2cccc3c(S(=O)(=O)c4ccccc4C(F)(F)F)c[nH]c23)CC1 [compound 508, 7-(4-methyl-piperazin-1-yl)-3-(2-trifluoromethyl-benzenesulfonyl)-1H-indole] | 237.1 to 241.5 °C
O=S(=O)(c1ccccn1)c1c[nH]c2c(N3CCNCC3)cccc12 | 198 to 199 °C
O=S(=O)(c1ccccc1)c1c[nH]c2c(C3CCNCC3)cccc12 [compound 301, 3-benzenesulfonyl-7-piperidin-4-yl-1H-indole] | 186 to 189.5 °C
O=S(=O)(c1ccccc1)c1c[nH]c2c(N3CCNCC3)cccc12 (as salt: hydrochloride) | 278 to 280 °C
Cn1cc(S(=O)(=O)c2cccc(C(F)(F)F)c2)c2cc(N3CCNCC3)ccc21 [compound 410, 1-methyl-5-piperazin-1-yl-3-(3-trifluoromethyl-benzenesulfonyl)-1H-indole] | 235 to 240 °C
Cc1[nH]c2c(N3CCNCC3)cccc2c1S(=O)(=O)c1ccccc1 [compound 601, 3-benzenesulfonyl-2-methyl-7-piperazin-1-yl-1H-indole] | 188 to 190 °C
Cn1cc(S(=O)(=O)c2cccc(Cl)c2)c2cc(N3CCNCC3)ccc21 [compound 415, 3-(3-chloro-benzenesulfonyl)-1-methyl-5-piperazin-1-yl-1H-indole] | 185.5 to 188.5 °C
